This passage reports IC50 and MIC results from ChEMBL document CHEMBL3870314, “Design, synthesis, anticancer, antimicrobial activities and molecular docking studies of theophylline containing acetylenes and theophylline containing 1,2,3-triazoles with variant nucleoside derivatives” (Eur J Med Chem, 2016).

≈ marks a conversion by molar mass, not a printed value.

Assay [1] in a line: Cytotoxicity against human HT-29 cells after 48 hrs by MTT assay. The format is functional, cell-based. The settings on record: HT-29, 48 h.
A short description of assay [2]: Cytotoxicity against human A375 cells after 48 hrs by MTT assay. Type of assay: functional, cell-based. Particulars: A-375, 48 h. (In general: Tetrazolium assays rely on reduction of a dye to a coloured formazan, in cell work by metabolically active cells.)
Assay [3] can be described thus: Cytotoxicity against human A549 cells after 48 hrs by MTT assay. The format is functional, cell-based. Particulars: A549, 48 h.
A short description of assay [4]: Cytotoxicity against human MCF7 cells after 48 hrs by MTT assay. The format is functional, cell-based. Particulars: MCF7, 48 h.
For a further assay, the system named is Bacillus cereus. The assay is described as follows: Antimicrobial activity against Bacillus cereus ATCC 10876 incubated overnight by two-fold serial dilution method. The format is functional.
For the next assay, the system named is Pseudomonas aeruginosa. Nature of the assay: Antimicrobial activity against Pseudomonas aeruginosa ATCC 10145 incubated overnight by two-fold serial dilution method. Type of assay: functional.
A further assay has as its system Staphylococcus aureus. The assay is described as follows: Antimicrobial activity against Staphylococcus aureus ATCC 25923 incubated overnight by two-fold serial dilution method. Type of assay: functional.

Take `CCn1c(=O)ccn(C2OC(Cn3cc(COC(=O)Cn4cnc5c4c(=O)n(C)c(=O)n5C)nn3)C(OC)C2OC)c1=O` (stereo unspecified): the IC50 (commonly the concentration needed to halve the response being measured) in assay [1] is 58.8 µM; in assay [2], 62.8 µM; in assay [3] it was 56.8 µM; in assay [4] it was 2.67 µM.
Regarding `C#CCCCOC(=O)Cn1cnc2c1c(=O)n(C)c(=O)n2C`, the MIC – broadly, the smallest concentration in the dilution series that meets the test's criterion for growth inhibition – in the assay on Bacillus cereus came to 0.0625 µg/mL (≈ 0.205 µM); against Pseudomonas aeruginosa it was 0.0625 µg/mL (≈ 0.205 µM); in the assay with Staphylococcus aureus, 0.5 µg/mL (≈ 1.64 µM). The IC50 in assay [1] is 36.6 µM; in assay [2], 158 µM; in assay [3], 56.8 µM; in assay [4] it was 162 µM.
Take `Cn1c(=O)c2c(ncn2CCCc2cn(CC3OC(n4ccc(=O)[nH]c4=O)C4OC(C)(C)OC34)nn2)n(C)c1=O` (stereo unspecified): the MIC turned out to be 0.0156 µg/mL (≈ 0.0281 µM) in the assay with Bacillus cereus, 0.0625 µg/mL (≈ 0.113 µM) with Pseudomonas aeruginosa and 0.0625 µg/mL (≈ 0.113 µM) with Staphylococcus aureus. In addition, the IC50 is 7.45 µM in assay [1], 9.4 µM in assay [2], 15.4 µM in assay [3] and 34.2 µM in assay [4].
Consider `Cn1c(=O)c2c(ncn2CC(=O)NCC(=O)OCc2cn(CC3OC(n4ccc(=O)[nH]c4=O)C4OC(C)(C)OC34)nn2)n(C)c1=O` (stereo unspecified), for which the MIC was determined as 0.0156 µg/mL (≈ 0.0243 µM) with Bacillus cereus, 0.125 µg/mL (≈ 0.195 µM) in the assay on Pseudomonas aeruginosa and 0.0312 µg/mL (≈ 0.0486 µM) against Staphylococcus aureus. Further, the 50% inhibitory concentration (IC50) in assay [1] is 59.3 µM; in assay [2], 59.8 µM; in assay [3], 5.67 µM; in assay [4] it was 12.6 µM.
With `C#CCn1cnc2c1c(=O)n(C)c(=O)n2C`, the results for the MIC against Bacillus cereus, in the assay on Pseudomonas aeruginosa and in the assay with Staphylococcus aureus were 0.125 µg/mL (≈ 0.573 µM), 0.125 µg/mL (≈ 0.573 µM) and 0.0625 µg/mL (≈ 0.286 µM), respectively. In addition, the IC50 in assay [1] is 158 µM; in assay [2], 153 µM; in assay [3], 152 µM; in assay [4], 103 µM.
Take `Cn1c(=O)c2c(ncn2Cc2cn(CC3OC(n4ccc(=O)[nH]c4=O)C4OC(C)(C)OC34)nn2)n(C)c1=O` (stereo unspecified): the MIC in the assay on Bacillus cereus came out at 0.0312 µg/mL (≈ 0.0592 µM); in the assay on Pseudomonas aeruginosa, 0.0312 µg/mL (≈ 0.0592 µM); with Staphylococcus aureus it was 0.5 µg/mL (≈ 0.948 µM). Also, the IC50 in assay [1] was determined as 58.2 µM; in assay [2], 54.2 µM; in assay [3], 8.59 µM; in assay [4] it was 10.4 µM.
On to `C#CCCCn1cnc2c1c(=O)n(C)c(=O)n2C`, for which the MIC against Bacillus cereus was found to be 0.125 µg/mL (≈ 0.508 µM); in the assay on Pseudomonas aeruginosa, 0.125 µg/mL (≈ 0.508 µM); in the assay on Staphylococcus aureus, 0.0312 µg/mL (≈ 0.127 µM). The IC50 in assay [1] turned out to be 160 µM; in assay [2], 156 µM; in assay [3] it was 55.4 µM; in assay [4], 34.2 µM.
With `CCn1c(=O)ccn(C2OC(Cn3cc(COC(=O)C(C)n4cnc5c4c(=O)n(C)c(=O)n5C)nn3)C(O)C2O)c1=O` (stereo unspecified), the minimal inhibitory concentration (MIC) against Bacillus cereus amounted to 0.0625 µg/mL (≈ 0.106 µM); against Pseudomonas aeruginosa it was 0.0312 µg/mL (≈ 0.0532 µM); against Staphylococcus aureus it was 0.0156 µg/mL (≈ 0.0266 µM). The IC50 worked out at 62.8 µM in assay [1], 68.4 µM in assay [2], 2.89 µM in assay [3] and 2.13 µM in assay [4].
With `CCn1c(=O)ccn(C2OC(Cn3cc(COC(=O)C(C)NC(=O)C(C)n4cnc5c4c(=O)n(C)c(=O)n5C)nn3)C(O)C2O)c1=O` (stereo unspecified), the figures for the minimal inhibitory concentration (MIC) against Bacillus cereus, in the assay with Pseudomonas aeruginosa and with Staphylococcus aureus were 0.0312 µg/mL (≈ 0.0474 µM), 0.0625 µg/mL (≈ 0.0949 µM) and 0.0312 µg/mL (≈ 0.0474 µM), respectively. Moreover, the IC50 in assay [1] was 2.71 µM; in assay [2], 52.3 µM; in assay [3], 1.56 µM; in assay [4] it was 3.8 µM.
For `CCn1c(=O)ccn(C2OC(Cn3cc(COC(=O)CNC(=O)Cn4cnc5c4c(=O)n(C)c(=O)n5C)nn3)C(O)C2O)c1=O` (stereo unspecified), the MIC turned out to be 0.125 µg/mL (≈ 0.198 µM) in the assay with Bacillus cereus, 0.0625 µg/mL (≈ 0.0991 µM) against Pseudomonas aeruginosa and 0.0625 µg/mL (≈ 0.0991 µM) in the assay on Staphylococcus aureus. In addition, the IC50 in assay [1] stood at 2.9 µM; in assay [2] it was 5.81 µM; in assay [3] it was 3.57 µM; in assay [4], 2.1 µM.
In the case of `C#CCCOC(=O)Cn1cnc2c1c(=O)n(C)c(=O)n2C`, the figures for the MIC with Bacillus cereus, in the assay with Pseudomonas aeruginosa and against Staphylococcus aureus were 0.125 µg/mL (≈ 0.431 µM), 0.0625 µg/mL (≈ 0.215 µM) and 0.0625 µg/mL (≈ 0.215 µM), respectively. Moreover, the IC50 in assay [1] came to 152 µM; in assay [2] it was 159 µM; in assay [3], 104 µM; in assay [4], 56.3 µM.
As for `CCn1c(=O)ccn(C2OC(Cn3cc(COC(=O)Cn4cnc5c4c(=O)n(C)c(=O)n5C)nn3)C(O)C2O)c1=O` (stereo unspecified), the MIC in the assay on Bacillus cereus, against Pseudomonas aeruginosa and in the assay on Staphylococcus aureus was 0.0625 µg/mL (≈ 0.109 µM) throughout. Also, the IC50 came to 2.19 µM in assay [1], 4.89 µM in assay [2], 2.56 µM in assay [3] and 1.89 µM in assay [4].
On to `CCn1c(=O)ccn(C2OC(Cn3cc(COC(=O)CNC(=O)Cn4cnc5c4c(=O)n(C)c(=O)n5C)nn3)C(OC)C2OC)c1=O` (stereo unspecified), for which the half-inhibitory concentration (IC50) in assay [1] amounted to 74.3 µM; in assay [2], 77.4 µM; in assay [3], 52 µM; in assay [4], 59.8 µM.
For `Cn1c(=O)c2c(ncn2CC(=O)OCCc2cn(CC3OC(n4ccc(=O)[nH]c4=O)C4OC(C)(C)OC34)nn2)n(C)c1=O` (stereo unspecified), in that order: 100 µM, 54.2 µM, 7.39 µM and 2.4 µM.
In the case of `Cn1c(=O)c2c(ncn2CC(=O)OCc2cn(CC3OC(n4ccc(=O)[nH]c4=O)C4OC(C)(C)OC34)nn2)n(C)c1=O` (stereo unspecified), the MIC with Bacillus cereus stood at 0.125 µg/mL (≈ 0.213 µM); against Pseudomonas aeruginosa, 0.0625 µg/mL (≈ 0.107 µM); against Staphylococcus aureus, 0.0312 µg/mL (≈ 0.0534 µM). Moreover, the IC50 in assay [1] amounted to 6.2 µM; in assay [2], 56.2 µM; in assay [3] it was 3.59 µM; in assay [4], 23.6 µM.
As to `Cn1c(=O)c2c(ncn2CC(=O)NCc2cn(CC3OC(n4ccc(=O)[nH]c4=O)C4OC(C)(C)OC34)nn2)n(C)c1=O` (stereo unspecified), the MIC worked out at 0.125 µg/mL (≈ 0.214 µM) with Bacillus cereus, 0.125 µg/mL (≈ 0.214 µM) against Pseudomonas aeruginosa and 0.0312 µg/mL (≈ 0.0535 µM) in the assay on Staphylococcus aureus. The IC50 came out at 58.2 µM in assay [1], 58.2 µM in assay [2], 53.9 µM in assay [3] and 2.14 µM in assay [4].
For the molecule `C#CCOC(=O)Cn1cnc2c1c(=O)n(C)c(=O)n2C`, the MIC in the assay with Bacillus cereus is 0.125 µg/mL (≈ 0.452 µM); against Pseudomonas aeruginosa it was 0.125 µg/mL (≈ 0.452 µM); in the assay with Staphylococcus aureus it was 0.0312 µg/mL (≈ 0.113 µM). The IC50 in assay [1] was 68.3 µM; in assay [2] it was 33.6 µM; in assay [3], 156 µM; in assay [4], 33.9 µM.
In the case of `COc1ccc(/C=C\c2cc(OC)c(OC)c(OC)c2)cc1O` [COMBRETASTATIN A4], the IC50 was determined as 0.93 µM in assay [1], 0.21 µM in assay [2], 0.11 µM in assay [3] and 0.18 µM in assay [4].
On to `O=C(O)c1cn(C2CC2)c2cc(N3CCNCC3)c(F)cc2c1=O` [CIPROFLOXACIN], for which the MIC against Bacillus cereus came to 0.0156 µg/mL (≈ 0.0471 µM); with Pseudomonas aeruginosa, 0.0625 µg/mL (≈ 0.189 µM); against Staphylococcus aureus it was 0.0312 µg/mL (≈ 0.0943 µM).
As to `Cn1c(=O)c2c(ncn2CC(=O)OCCCc2cn(CC3OC(n4ccc(=O)[nH]c4=O)C4OC(C)(C)OC34)nn2)n(C)c1=O` (stereo unspecified), the MIC in the assay on Bacillus cereus was determined as 0.0312 µg/mL (≈ 0.0509 µM); in the assay on Pseudomonas aeruginosa it was 0.0312 µg/mL (≈ 0.0509 µM); in the assay with Staphylococcus aureus, 0.125 µg/mL (≈ 0.204 µM). Further, the half-maximal inhibitory concentration (IC50) in assay [1] was 12.4 µM; in assay [2] it was 8.23 µM; in assay [3], 14.3 µM; in assay [4], 30.6 µM.
For the molecule `C#CCNC(=O)Cn1cnc2c1c(=O)n(C)c(=O)n2C`, the MIC against Bacillus cereus is 0.0625 µg/mL (≈ 0.227 µM); against Pseudomonas aeruginosa it was 0.0625 µg/mL (≈ 0.227 µM); in the assay with Staphylococcus aureus it was 0.0156 µg/mL (≈ 0.0567 µM). The IC50 in assay [1] came to 19.4 µM; in assay [2] it was 28.2 µM; in assay [3], 114 µM; in assay [4] it was 157 µM.
